According to publication PMC2581485, “Ca^2+ Signaling Occurs via Second Messenger Release from Intraorganelle Synthesis Sites” (Current Biology, 2008):

Assays:
recombinant ARCβ = target: T1, recombinant ARCβ (Strongylocentrotus purpuratus, UniProt A5HNF4); assay: radiometric TLC of […]cADPR formation; assay type: biochemical; settings: 16 nM substrate; labelled compound; 1 h, 20 °C; pH varied, acidic pH preferred
T1 construct: gene ARCB

recombinant ARCα = target: T2, recombinant ARCα (Strongylocentrotus purpuratus, UniProt A5HNF3); assay: radiometric TLC of […]cADPR formation; assay type: biochemical; settings: 16 nM substrate; labelled compound; 1 h, 20 °C; pH varied, acidic pH preferred
T2 construct: gene ARCA
T2 sequence (A5HNF3 entry or part of it): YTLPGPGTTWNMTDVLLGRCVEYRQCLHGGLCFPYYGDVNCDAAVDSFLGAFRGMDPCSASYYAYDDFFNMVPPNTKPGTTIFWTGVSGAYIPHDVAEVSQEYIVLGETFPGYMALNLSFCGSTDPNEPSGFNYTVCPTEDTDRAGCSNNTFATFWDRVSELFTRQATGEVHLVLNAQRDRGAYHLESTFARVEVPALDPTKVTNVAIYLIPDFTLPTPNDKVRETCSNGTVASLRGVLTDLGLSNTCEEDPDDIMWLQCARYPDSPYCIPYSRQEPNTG

T1 sequence (A5HNF4 entry or part of it): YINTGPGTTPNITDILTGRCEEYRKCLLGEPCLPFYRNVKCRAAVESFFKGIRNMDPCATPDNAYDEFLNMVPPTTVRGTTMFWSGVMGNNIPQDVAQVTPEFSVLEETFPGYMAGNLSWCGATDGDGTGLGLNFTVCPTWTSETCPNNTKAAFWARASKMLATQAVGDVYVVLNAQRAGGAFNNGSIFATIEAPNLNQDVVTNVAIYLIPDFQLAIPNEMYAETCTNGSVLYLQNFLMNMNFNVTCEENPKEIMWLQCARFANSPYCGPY

| Compound | radiometric TLC of [32P]cADPR formation (recombinant ARCβ) | radiometric TLC of [32P]cADPR formation (recombinant ARCα) |
| --- | --- | --- |
| N=c1c2ncn3c2ncn1[C@@H]1O[C@H](COP(=O)(O)OP(=O)(O)OC[C@H]2O[C@@H]3[C@H](O)[C@@H]2O)[C@@H](O)[C@H]1O [cADPR] | pH dependency of recombinant ARCα or ARCβ is shown | recombinant (Figure 3D) and endogenous (Figure 3C) sea urchin ARCs preferentially synthesize cADPR |
| NC(=O)c1ccc[n+]([C@@H]2O[C@H](COP(=O)([O-])OP(=O)(O)OC[C@H]3O[C@@H](n4cnc5c(N)ncnc54)[C@H](O)[C@@H]3O)[C@@H](O)[C@H]2O)c1 [β-NAD^+] | pH dependency of recombinant ARCα or ARCβ is shown | recombinant (Figure 3D) and endogenous (Figure 3C) sea urchin ARCs preferentially synthesize cADPR |
